Test results from patent publication US20070254023A1, “Perorally Administrable Antimicrobial Composition” (priority 2004, published 2007).

Tested on: bifidobacteria
Assay: Effect of peroral administration on bifidobacteria of the gut in CBA mice
Assay type: in vivo
Details: ten-day peroral course, tetracycline 750 mg/kg
Text: Comparative experimental trials of the effect of peroral administration of antibiotics and an antibacterial composition comprising an antibiotic and lactulose on gut organisms and liver condition in CBA mice.
Models of experimental pathology caused by peroral administration of ampicillin and tetracycline in large doses were used.

CN(C)[C@@H]1C(O)=C(C(N)=O)C(=O)[C@@]2(O)C(O)=C3C(=O)c4c(O)cccc4[C@@](C)(O)[C@H]3C[C@@H]12 [tetracycline] was tested, and the “contents of bifidobacteria in the large intestine” value was “reduced the contents of bifidobacteria”.
